From patent US20240360186A1, “Treatment Of Integrin-Related Disorders With Stapled Peptides” (Institute For Cancer Research d/b/a The Research Institute …, priority 2021, published 2024)
“Also recorded” adds a separate entry of the source. Bridge positions count the residues as written; N and C are the ends. Square brackets hold non-standard residues; d marks the D form. Peptide text beside a SMILES is read from it. S5 = C=CCCC[C@](C)(N)C(=O)O

What was measured:
talin rod R7R8 domains = biological target: T1, talin rod R7R8 domains (Mus musculus, UniProt P26039); experiment: Fluorescent polarization (FP) binding assay, talin rod R7R8; settings: S-TBS versus TBS, from FP Kd values
T1 construct: talin rod R7R8 and talin head (residues 1-430) were measured using fluorophore-labeled peptides and recombinantly expressed, purified talin proteins; made in house
Protocol: (§1) To assess the binding affinities of S-TBS with talin, the Kd of TBS and S-TBS peptides with talin rod R7R8 and talin head (residues 1-430) were measured using fluorophore-labeled peptides and recombinantly expressed, purified talin proteins by FP assays. […] This gain of affinity may be attributed to the C8 staple as it stabilizes the helical structure of TBS, and the enhanced hydrophobic interaction between S-TBS and talin rod. The enhanced binding of S-TBS to talin further validates the design strategy of using stapled peptides as a potent competitive inhibitor.
(§2) Fluorescent Polarization: Mixtures were prepared of purified talin proteins at a series concentration (R7R8: 0.2 μM to 20 μM; THD/b3-THD: 5 μM to 100 μM), or buffer only, with 20 nM FITC-labeled S-TBS (New England Peptide) in a buffer containing 20 mM HEPES, pH 7.5, 100 mM NaCl, and 2 mM DTT. After five minutes of incubation, 20 μl of the reaction mix was added to individual wells of a 384-well assay plate (Corning) and then measured fluorescence polarization at room temperature using a plate reader. A […] as emission polarization filters. FP signals were normalized against buffer-only background and then fit to a single-site (saturating) binding model using SigmaPlot (Systat Software).

[1] = biological target: T2, talin head (residues 1-430) (Mus musculus, UniProt P26039); experiment: Fluorescent polarization (FP) binding assay, talin head
T2 construct: talin rod R7R8 and talin head (residues 1-430) were measured; made in house
Protocol: as §1, §2

CHO-A5 cells = experiment: Cell permeability assay (flow cytometry uptake of fluorophore-labelled peptide); type: in vitro ADME
Protocol: Assessing membrane permeability: CHO-A5 cells were treated with FAM-labelled WT-TBS (1, 10, and 50 μM), or with FITC-labelled stapled-TBS (1, 10, and 50 μM), and incubated for 30 minutes at 37° C. The cells were washed twice with phosphate-buffered saline (PBS), harvested in trypsin-EDTA, and centrifuged at 2,000 rpm for 5 minutes. The cells were resuspended in PBS and quantified with an LSR flow cytometer using 30,000 cells per measurement.
A common challenge for peptidomimetic drugs that target intracellular proteins is the poor cell membrane permeability. To assess the effect of the C8 staple on cell permeability, FITC-labeled S-TBS were incubated with CHO cells at various concentration and examined S-TBS uptake by flow cytometry. […] The assay was then performed using lower doses of peptides and quantified the signals for statistical analyses. […] In contrast, TBS requires a concentration of at least 5 μM for cell uptake (FIG. 3, Panel B).
Cell permeability assay: CHO-A5 cells were plated in 6-well dishes, and then treated with fluorophore labeled TBS or S-TBS peptides at indicated concentrations for 30 minutes at 37° C. The cells were then washed twice with phosphate-buffered saline (PBS), detached by adding a mixture of trypsin and […] (“trypsin-EDTA”) and harvested by spinning at 2,000 rpm for 5 minutes. The cells were resuspended in PBS and quantified with an LSR flow cytometer (525/50 filter, 488 nm laser) using 30,000 cells per measurement.

integrin αIIbβ3 [2] = experiment: Integrin activation assay, wild-type talin head domain; type: cell-based; settings: CHO-A5 cells expressing GFP-tagged wild-type talin head domain; TBS 100 μM, S-TBS 10 and 100 μM, 30 minutes; PAC1 flow cytometry
Protocol: (§3) Assessing integrin activation: CHO-A5 cells were transfected with GFP-tagged talin-head domain (residues 1-430, WT or W359A) and incubated for 24 hours at 37° C. The cells were subsequently treated with WT-TBS at 100 μM or Staple-TBS (at 10 and 100 μM) for 30 minutes at 37° C. and washed twice with PBS, harvested in trypsin-EDTA, and centrifuged at 2,000 rpm for 5 minutes. The cells were incubated in Tyrode's buffer (136.9 mM NaCl, 10 mM HEPES, 5.5 mM glucose, 11.9 mM NaHCO3, 2.7 mM KCl, 0.5 mM CaCl2), 1.5 mM MgCl2, and 0.4 mM NaH2PO4, pH 7.4) containing PAC1 antibody for 1 hour at 30° C. and then stained with Alexa 647 (goat anti-mouse IgM) for 30 minutes at RT. The cells were quantified with an LSR flow cytometer using 30,000 cells per measurement.
(§4) The effect of S-TBS on talin-induced activation of integrin αIIbβ3 was examined. CHO-A5 cells that stably express integrin αIIbβ3 were transfected with a green fluorescent protein-tagged talin head domain, treated with S-TBS or TBS, and then subjected flow cytometry analysis for integrin αIIbβ3 activity. […]
(§5) Integrin activation assays: CHO-A5 cells were transfected with talin-head domain, wild-type or W359A, and incubated for 24 hours at 37° C. […] The cells were quantified with a Beckton, Dickenson & Co. Biosciences LSR flow cytometer (660/20 filter, 640 nm laser) using 30,000 cells per measurement.

integrin αIIbβ3 [3] = experiment: Integrin activation assay, inactive talin head mutant THD-W359A; type: cell-based; settings: CHO-A5 cells transfected with THD-W359A; TBS 100 μM, S-TBS 10 and 100 μM; PAC1 flow cytometry
Protocol: as §3, §4, §5

HEK-293 cells = experiment: Cell toxicity assay, HEK-293; type: cell-based; settings: 40 μM, treated one hour then washed away, viability at 24 and 48 hours
Protocol: (§6) The cell toxicity of the peptides was then examined. HEK, MCF-7, and HeLa were used. Cells were treated with S-TBS 40 μm for one hour. The S-TBS was then washed away and the viability measured at 24 and 48 hours. No impact on HEK, MCF-7, and HeLa cell growth was observed.

MCF-7 cells = experiment: Cell toxicity assay, MCF-7; type: cell-based; settings: 40 μM, treated one hour then washed away, viability at 24 and 48 hours
Protocol: as §6

HeLa cells = experiment: Cell toxicity assay, HeLa; type: cell-based; settings: 40 μM, treated one hour then washed away, viability at 24 and 48 hours
Protocol: as §6

CHO cell = experiment: Cell toxicity, CHO cell growth; type: cell-based
Jurkat T-cell = experiment: Cell toxicity, Jurkat T-cell growth; type: cell-based

T1 sequence (P26039 1359-1659 limits assumed): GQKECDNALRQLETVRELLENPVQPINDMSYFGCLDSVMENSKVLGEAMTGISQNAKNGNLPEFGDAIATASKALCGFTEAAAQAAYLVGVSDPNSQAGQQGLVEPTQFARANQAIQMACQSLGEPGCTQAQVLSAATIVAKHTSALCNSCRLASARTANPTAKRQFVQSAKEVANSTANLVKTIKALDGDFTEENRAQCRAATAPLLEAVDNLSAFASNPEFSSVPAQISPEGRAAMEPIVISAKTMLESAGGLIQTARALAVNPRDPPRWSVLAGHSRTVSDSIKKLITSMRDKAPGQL

- fold stronger binding to R7R8 than TBS (talin rod R7R8 domains): 6 fold
- Kd ([1]; FP assay, fluorophore-labeled peptide, purified recombinant talin head (residues 1-430), read-out: Kd, talin head domain): 30.3 ± 4.8 µM
- fold stronger binding to talin head than TBS ([1]; S-TBS versus TBS, from FP Kd values): 3.5 fold
- fluorescence signal of treated cells (peptide uptake) compared with fluorophore-labelled TBS (CHO-A5 cells; CHO cells, 1, 10 and 50 μM, 30 minutes at 37° C., FITC-labeled S-TBS): significantly stronger signal
- concentration giving significant cell uptake (CHO-A5 cells; CHO-A5 cells, lower doses, flow cytometry permeability index, fluorophore-labelled peptides): 500 nM
SMILES: CC[C@H](C)[C@H](NC(=O)[C@H](CC(=O)O)NC(=O)[C@H](CCC(=O)O)NC(=O)[C@@H](N)CC(N)=O)C(=O)N[C@@H](CC(=O)O)C(=O)N[C@@H](CCC(N)=O)C(=O)N[C@@H](CCSC)C(=O)N[C@@H](Cc1ccccc1)C(=O)N[C@@H](CO)C(=O)N[C@H](C(=O)N[C@@H](CC(C)C)C(=O)N[C@@H](CC(C)C)C(=O)NCC(=O)N[C@@H](CCC(=O)O)C(=O)N[C@@]1(C)CCCC=CCCC[C@@](C)(C(=O)N[C@@H](CCC(N)=O)C(=O)N[C@@H](CO)C(=O)O)NC(=O)[C@H](CC(C)C)NC(=O)[C@H](CC(C)C)NC(=O)[C@H](CC(=O)O)NC1=O)[C@@H](C)O [S-TBS, (Stp(15,19))H2N-NEDIDQMFSTLLGE(S5)DLL(S5)QS-OH] (H-NEDIDQMFSTLLGE[S5]DLL[S5]QS-OH; staple 15-19)
- integrin αIIbβ3 activity (talin-induced activation) (integrin αIIbβ3 [2]): significantly suppresses integrin αIIbβ3 activity in a dose-dependent manner
- integrin αIIbβ3 activity with inactive talin head THD-W359A (integrin αIIbβ3 [3]): No inhibitory effect
- cell toxicity (viability / cell growth), HEK (HEK-293 cells): No impact; also recorded: minimal cell toxicity
- cell toxicity (viability / cell growth), MCF-7 (MCF-7 cells): No impact; also recorded: minimal cell toxicity
- cell toxicity (viability / cell growth), HeLa (HeLa cells): No impact; also recorded: minimal cell toxicity
- impact on CHO cell growth (CHO cell): no impact
- impact on Jurkat T-cell growth (Jurkat T-cell): no impact
